Experimental data as given in patent US11485987B2, “Methods for inducing bioorthogonal reactivity” (University of Delaware, priority 2015, dated 2022).

Experiment: FeCl2 catalyzed oxidation of a dihydrotetrazine in the presence of H2O2
Conditions: DHTz 100 μM, 1 mM H2O2, FeCl2 0.05 mM, deionized water
Description: N′-Boc PEG10 dipyridyl-dihydrotetrazine was dissolved in deionized water containing 1 mM H2O2 to give a final DHTz concentration of 100 μM. The UV absorbance at 330 nm wavelength was monitored over 10 min. Then a 5 mM FeCl2 stock solution was added and mixed quickly to get a final FeCl2 concentration of 0.05 mM., followed by continuous monitoring of UV absorbance at 330 nm over 10 min. Oxidation was rapid and complete within ˜1 minute.

CC(C)(C)OC(=O)NCCOCCOCCOCCOCCOCCOCCOCCOCCOCCOCCOCCNC(=O)CCCC(=O)Nc1ccc(C2=NNC(c3ccccn3)=NN2)nc1 [N′-Boc PEG10 dipyridyl-dihydrotetrazine]
time to complete oxidation: ~1 min
